Results as given in US20140031283A1, “ANTICANCER FUSION PROTEIN” (ADAMED SP. Z O.O., priority 2011, published 2014).

Assays:
A549 = test: MTT cytotoxicity test, A549 (human lung cancer); assay type: cell-based; conditions: continuous incubation over 72 h, test MTT
Excerpt: MTT assay is a colorimetric assay used to measure proliferation, viability and cytotoxicity of cells. It consists in decomposition of a yellow tetrazolium salt MTT (4,5-dimethyl-2-thiazolyl)-2,5-diphenyltetrazolium bromide) to the water-insoluble purple dye formazan by mitochondrial enzyme succinate-tetrazolium reductase 1. MTT reduction occurs only in living cells. Data analysis consists in determining IC50 concentration of the protein (in ng/ml), at which the 50% reduction in the number of cells occurs in the population treated compared to control cells. Results were analyzed using GraphPad Prism 5.0 software. The test was performed according to the literature descriptions (Cells, J E, (1998). Cell Biology, a Laboratory Handbook, second edition, Academic Press, San Diego; Yang, Y., Koh, L W, Tsai, J H., (2004); Involvement of viral and chemical factors with oral cancer in Taiwan, Jpn J Clin Oncol, 34 (4), 176-183). Cell culture medium was diluted to a defined density (10^4-10^5 cells per 100 μl). Then 100 μl of appropriately diluted cell suspension was applied to a 96-well plate in triplicates. Thus prepared cells were incubated for 24 h at 37° C. in 5% or 10% CO2, depending on the medium used, and then to the cells (in 100 μl of medium) further 100 μl of the medium containing various concentrations of tested proteins were added. In the case of combination hTRAIL114-281 and p21WAF effector protein, 100 μl of the medium containing mixture of hTRAIL114-281 and p21WAF effector protein in molar ratio 1:1 was added. After incubation of the cells with tested proteins over the period of next 72 hours, which is equivalent to 3-4 times of cell division, the medium with the test protein was added with […] of MTT working solution [5 mg/ml], and incubation was continued for 3 h at 37° C. in 5% CO2. Then the medium with MTT solution was removed, and formazan crystals were dissolved by adding 100 μl of DMSO. After stirring, the absorbance was measured at 570 nm (reference filter 690 nm). […]

[1] = system: human liver cancer model HepG2; test: HepG2 liver cancer xenograft in Crl:SHO-Prkdc^scidHr^hr mice; assay type: in vivo; conditions: 30 mg/kg i.v. six times every second day, 33rd day
Method: (§1) Antitumor activity of protein preparations was tested in a mouse model of human colon cancer HCT116, human colon cancer Colo205, human colon cancer model SW620, human liver cancer model HepG2, and human lung cancer models NCI-H460 and NCI-H460-Luc2.
(§2) The HepG2cells were maintained in MEM (HyClone, Logan, Utah, USA) supplemented with 10% fetal calf serum and 2 mM glutamine. On the day of mice grafting, the cells were detached from the support by washing the cells with trypsin (Invitrogen), then the cells were centrifuged at 1300 rpm, 4°C., 8 min., suspended in HBSS buffer (Hanks medium), counted and diluted to the concentration of 25×10^6 cells/ml.
Examination of antitumor activity of proteins of the invention was conducted on 7-9 week-old CD-nude (Crl:CD1-Foxn1^nu 1) or 4-6 week-old Crl:SHO-Prkdc^scidHr^hr mice obtained from Charles River Germany. Mice were kept under specific pathogen-free conditions with free access to food and demineralised water (ad libitum). All experiments on animals were carried in accordance with the guidelines: “Interdisciplinary Principles and Guidelines for the Use of Animals in Research. Marketing and Education” issued by the New York Academy of Sciences' Ad Hoc Committee on Animal Research and were approved by the IV Local Ethics Committee on Animal Experimentation in Warsaw (No. 71/2009). […]

[2] = system: human lung cancer NCI-H460-Luc2; test: NCI-H460-Luc2 lung cancer xenograft in Crl:CD1-Foxn1nu 1 mice; assay type: in vivo; conditions: NCI-H460-Luc2, Crl:CD1-Foxn1nu 1 mice, 10 mg/kg i.v. six times every second day, 30th day
Method: as §1
as §2, with “HCT116 (in mice Crl:CD1-Foxn1^nu 1), Colo205, NCI-H460, NCI-H460-Luc2 cells” for “HepG2cells”, “RPMI 1640 medium (Hyclone,” for “MEM (HyClone,”, “USA) mixed in the ratio of 1:1 with Opti-MEM (Invitrogen, Cat.22600-134)” for “USA)”, “4° C.,” for “4°C.,”
Examination of antitumor activity of proteins of the invention was conducted on 7-9 week-old CD-nude (Crl:CD1-Foxn1^nu 1) or 4-6 week-old Crl:SHO-Prkdc^scidHr^hr mice obtained from Charles River Germany. Mice were kept under specific pathogen-free conditions with free access to food and demineralised water (ad libitum). All experiments on animals were carried in accordance with the guidelines: “Interdisciplinary Principles and Guidelines for the Use of Animals in Research. […]

NCI-H460 = conditions: continuous incubation over 72 h, test MTT
Method: Data analysis consists in determining IC50 concentration of the protein (in ng/ml), at which the 50% reduction in the number of cells occurs in the population treated compared to control cells. Results were analyzed using GraphPad Prism 5.0 software. […] Cell culture medium was diluted to a defined density (10^4-10^5 cells per 100 μl). Then 100 μl of appropriately diluted cell suspension was applied to a 96-well plate in triplicates. Thus prepared cells were incubated for 24 h at 37° C. in 5% or 10% CO2, depending on the medium used, and then to the cells (in 100 μl of medium) further 100 μl of the medium containing various concentrations of tested proteins were added. […] After incubation of the cells with tested proteins over the period of next 72 hours, which is equivalent to 3-4 times of cell division, the medium with the test protein was added with 20 ml of MTT working solution [5 mg/ml], and incubation was continued for 3 h at 37° C. in 5% CO2. Then the medium with MTT solution was removed, and formazan crystals were dissolved by adding 100 μl of DMSO. After stirring, the absorbance was measured at 570 nm (reference filter 690 nm).
Each experiment represents the average value of at least two independent experiments performed in triplicates.

- NCI-H460 IC50 (NCI-H460): 0.06968 mg/L
Substance: rhTRAIL114-281: recombinant human soluble TRAIL, amino acids 114-281 of hTRAIL, used as the comparative reference
- A549 IC50 (A549): >10 mg/L
- tumor growth inhibition (TGI) relative to the control [1]: 12.6%
- tumor growth inhibition (TGI) relative to the control [2]: 53.1%
